# Experimental data taken from patent publication US20250326725A1, “PI4-Kinase Inhibitors and Methods of Using the Same” (The Board of Trustees of the Leland Stanford Junior …, priority 2019, published 2025).
# Columns and labels:
# [1] = Cell toxicity (CC50) in EV68 assay; conditions: EV68 CC50
# [2] = system: HCV; assay: Anti-HCV assay (EC50); type: cell-based; conditions: Hepatitis C virus, read-out: HCV EC50
# Protocol: Anti-HCV assay: Anti-HCV assays are performed as described by Cho et al. “Identification of a class of HCV inhibitors directed against the nonstructural protein NS4B.” Sci. Transl. Med. 2011; 2(15):15ra6.
# [3] = Cell toxicity (CC50) in HRV assay; conditions: human, HRV CC50
# [4] = system: EV68; assay: EV68 antiviral assay (EC50); type: cell-based
# [5] = system: EV71; assay: EV71 antiviral assay (EC50); type: cell-based, Enterovirus 71; conditions: Enterovirus A, EV71
# [6] = Cell toxicity (CC50) in EV71 assay; conditions: EV71 CC50
smiles,measurement,setting,value
COc1ccc(-c2sc(NC(C)(C)C3CCOCC3)nc2C)cc1S(=O)(=O)Nc1cccc2[nH]cc(Br)c12 [Compound S-27],CC50,[1],1760 nM
same,EC50,[2],2.3 nM
same,CC50,[3],1410 nM
same,EC50,[4],5.9 nM
same,EC50,[5],3.6 nM
same,CC50,[6],6230 nM
COc1ccc(-c2sc(NC(C)(C)C3CCOCC3)nc2C)cc1S(=O)(=O)Nc1ccc(F)cc1C(F)F [Compound S-30],CC50,[1],6450 nM
same,EC50,[2],11.2 nM
same,CC50,[3],3790 nM
same,EC50,[4],59.2 nM
same,EC50,[5],2.2 nM
same,CC50,[6],20200 nM
COc1ccc(-c2sc(NC(C)(C)C3CCNCC3)nc2C)cc1S(=O)(=O)Nc1ccc(F)cc1Cl [Compound S-52],CC50,[1],2230 nM
same,EC50,[2],75000 nM
same,CC50,[3],2320 nM
same,EC50,[4],100000 nM
same,EC50,[5],75000 nM
same,CC50,[6],3070 nM
COc1ccc(-c2oc(NC(C)(C)c3ccccc3)nc2C)cc1S(=O)(=O)Nc1cccnc1C [Compound S-33],CC50,[1],5230 nM
same,EC50,[2],0.1 nM
same,CC50,[3],30500 nM
same,EC50,[4],0.7 nM
same,EC50,[5],0.1 nM
same,CC50,[6],71300 nM
COc1ccc(-c2sc(NC(C)(C)C3CCOCC3)nc2C)cc1S(=O)(=O)Nc1ccc(F)cc1C [Compound S-8],EC50,[2],0.8 nM
same,CC50,[3],8470 nM
same,EC50,[5],0.3 nM
same,CC50,[6],91900 nM
COc1ccc(-c2sc(NC3(C4CCOCC4)CC3)nc2C)cc1S(=O)(=O)Nc1ccccc1Cl [Compound S-19],CC50,[1],39400 nM
same,EC50,[2],31.5 nM
same,CC50,[3],37700 nM
same,EC50,[4],22100 nM
same,EC50,[5],15.8 nM
same,CC50,[6],18300 nM
COc1ccc(-c2sc(NC(C)(C)C3CCOCC3)nc2C)cc1S(=O)(=O)Nc1c(F)cccc1CO [Compound S-22],CC50,[1],19300 nM
same,EC50,[2],2.7 nM
same,CC50,[3],15500 nM
same,EC50,[4],4.8 nM
same,EC50,[5],0.8 nM
same,CC50,[6],16500 nM
COCC(C)(C)Nc1nc(C)c(-c2ccc(OC)c(S(=O)(=O)Nc3c(C)cccc3F)c2)s1 [Compound S-63],CC50,[1],40600 nM
same,EC50,[2],1.5 nM
same,CC50,[3],27700 nM
same,EC50,[4],3.4 nM
same,EC50,[5],8.4 nM
same,CC50,[6],83800 nM
COc1ccc(-c2sc(NC(C)(C)C3CCOCC3)nc2C)cc1S(=O)(=O)Nc1cccnc1C(F)(F)F [Compound S-15],CC50,[1],63700 nM
same,EC50,[2],82 nM
same,CC50,[3],100000 nM
same,EC50,[4],335 nM
same,EC50,[5],65.3 nM
same,CC50,[6],100000 nM
COc1ccc(-c2sc(NC(C)(C)C3CCNCC3)nc2C)cc1S(=O)(=O)Nc1cccnc1C [Compound S-53],CC50,[1],100000 nM
same,EC50,[2],12400 nM
same,CC50,[3],100000 nM
same,EC50,[4],12300 nM
same,EC50,[5],3560 nM
same,CC50,[6],47900 nM
COc1ccc(-c2sc(NC(C)(C)C3CCOCC3)nc2C)cc1S(=O)(=O)NC1CCN(S(C)(=O)=O)CC1 [Compound S-13],CC50,[1],102000 nM
same,EC50,[2],8.1 nM
same,CC50,[3],102000 nM
same,EC50,[4],39.1 nM
same,EC50,[5],1.3 nM
same,CC50,[6],99400 nM
COc1ccc(-c2oc(NC(C)(C)c3ccccc3)nc2C)cc1S(=O)(=O)Nc1c(C)cccc1F [Compound S-65],CC50,[1],1700 nM
same,EC50,[2],1.8 nM
same,CC50,[3],46300 nM
same,EC50,[4],2.4 nM
same,EC50,[5],2.7 nM
same,CC50,[6],31300 nM
COc1ccc(-c2sc(NC34CC(C3)C4)nc2C)cc1S(=O)(=O)Nc1c(C)cccc1F [Compound S-55],CC50,[1],22100 nM
same,EC50,[2],1 nM
same,CC50,[3],19400 nM
same,EC50,[4],6.8 nM
same,EC50,[5],1.8 nM
same,CC50,[6],100000 nM
COc1ccc(-c2sc(NC(C)(C)C3CCOCC3)nc2C)cc1S(=O)(=O)Nc1ccc(Br)nc1F [Compound S-2],EC50,[2],2.3 nM
same,CC50,[3],33400 nM
same,EC50,[5],0.8 nM
same,CC50,[6],66600 nM
COc1ccc(-c2sc(NC(C)(C)c3ccncc3)nc2C)cc1S(=O)(=O)Nc1ccncc1C [Compound S-49],CC50,[1],71400 nM
same,EC50,[2],10 nM
same,CC50,[3],66300 nM
same,EC50,[4],50.7 nM
same,EC50,[5],1 nM
same,CC50,[6],29500 nM
COc1ccc(-c2sc(NC(C)(C)C3CCOCC3)nc2C)cc1S(=O)(=O)NC1CCN(C(=O)OC(F)(F)F)CC1 [Compound S-20],CC50,[1],51600 nM
same,EC50,[2],25.7 nM
same,CC50,[3],49400 nM
same,EC50,[4],50.7 nM
same,EC50,[5],3.6 nM
same,CC50,[6],18900 nM
COc1ccc(-c2sc(NC(C)(C)C3CCOCC3)nc2C)cc1S(=O)(=O)Nc1ncc[nH]1 [Compound S-24],CC50,[1],13400 nM
same,EC50,[2],3.7 nM
same,CC50,[3],9620 nM
same,EC50,[4],11.1 nM
same,EC50,[5],4.6 nM
same,CC50,[6],73000 nM
COc1ccc(-c2sc(NC(C)(C)C3CCOCC3)nc2C)cc1S(=O)(=O)NC1CCN(C(=O)OC(C)(C)C)CC1 [Compound S-9],CC50,[1],100000 nM
same,EC50,[2],5 nM
same,CC50,[3],100000 nM
same,EC50,[4],29 nM
same,EC50,[5],4.8 nM
same,CC50,[6],69300 nM
COc1ccc(-c2sc(NC(C)(C)C3CCOCC3)nc2C)cc1S(=O)(=O)Nc1nccn1C [Compound S-29],CC50,[1],102000 nM
same,EC50,[2],5.7 nM
same,CC50,[3],98700 nM
same,EC50,[4],39.1 nM
same,EC50,[5],9.8 nM
same,CC50,[6],100000 nM
COc1ccc(-c2sc(NC(C)(C)C3CCOCC3)nc2C)cc1S(=O)(=O)Nc1cncnc1C [Compound S-23],CC50,[1],66100 nM
same,EC50,[2],138 nM
same,CC50,[3],100000 nM
same,EC50,[4],796 nM
same,EC50,[5],49 nM
same,CC50,[6],100000 nM
COc1ccc(-c2oc(NC(C)(C)c3cccnc3)nc2C)cc1S(=O)(=O)Nc1ccncc1C [Compound S-48],CC50,[1],100000 nM
same,EC50,[2],74.5 nM
same,CC50,[3],100000 nM
same,EC50,[4],217 nM
same,EC50,[5],4.5 nM
same,CC50,[6],100000 nM
COc1ccc(-c2sc(NC(C)(C)C3CCOCC3)nc2C)cc1S(=O)(=O)Nc1c(F)cccc1C(F)F [Compound S-31],CC50,[1],61800 nM
same,EC50,[2],0.5 nM
same,CC50,[3],52300 nM
same,EC50,[4],0.8 nM
same,EC50,[5],0.2 nM
same,CC50,[6],70600 nM
COc1ccc(-c2sc(NC(C)(C)C3CCOCC3)nc2C)cc1S(=O)(=O)Nc1cccnc1OC [Compound S-18],CC50,[1],80000 nM
same,EC50,[2],11.9 nM
same,CC50,[3],62100 nM
same,EC50,[4],14 nM
same,EC50,[5],4.4 nM
same,CC50,[6],43200 nM
COc1ccc(-c2sc(NC(C)(C)C3CCOCC3)nc2C)cc1S(=O)(=O)Nc1ccc(NC(C)=O)cc1 [Compound S-40],CC50,[1],42700 nM
same,EC50,[2],0.2 nM
same,CC50,[3],40800 nM
same,EC50,[4],1.2 nM
same,EC50,[5],0.0751 nM
same,CC50,[6],78100 nM
COc1ccc(-c2sc(NC(C)(C)C3CCOCC3)nc2C)cc1S(=O)(=O)Nc1c(C)cc(F)cc1F [Compound S-28],CC50,[1],77600 nM
same,EC50,[2],4.9 nM
same,CC50,[3],87400 nM
same,EC50,[4],9.1 nM
same,EC50,[5],4.2 nM
same,CC50,[6],100000 nM
COc1ccc(-c2sc(NC(C)(C)C3CCN(C(C)=O)CC3)nc2C)cc1S(=O)(=O)Nc1ccc(F)cc1Cl [Compound S-51],CC50,[1],37000 nM
same,EC50,[2],1.5 nM
same,CC50,[3],52700 nM
same,EC50,[4],11.5 nM
same,EC50,[5],1.3 nM
same,CC50,[6],62100 nM
COc1ccc(-c2sc(NC3(C4CCOCC4)CC3)nc2C)cc1S(=O)(=O)Nc1cccnc1C [Compound S-16],CC50,[1],39200 nM
same,EC50,[2],683 nM
same,CC50,[3],38300 nM
same,EC50,[4],2100 nM
same,EC50,[5],568 nM
same,CC50,[6],21200 nM
COc1ccc(-c2sc(NC(C)(C)c3ccccc3)nc2C)cc1S(=O)(=O)Nc1ccncc1C(F)(F)F [Compound S-44],CC50,[1],33500 nM
same,EC50,[2],30.6 nM
same,CC50,[3],32100 nM
same,EC50,[4],1990 nM
same,EC50,[5],3.5 nM
same,CC50,[6],18200 nM
COc1ccc(-c2sc(NC(C)(C)C3CCOCC3)nc2C)cc1S(=O)(=O)NC1CCS(=O)(=O)CC1 [Compound S-11],CC50,[1],43300 nM
same,EC50,[2],57.1 nM
same,CC50,[3],40700 nM
same,EC50,[4],3830 nM
same,EC50,[5],7.2 nM
same,CC50,[6],26000 nM
COc1ccc(-c2sc(NC(C)(C)C3CCN(C(C)=O)CC3)nc2C)cc1S(=O)(=O)Nc1cccnc1C [Compound S-21],CC50,[1],94800 nM
same,EC50,[2],2.4 nM
same,CC50,[3],87600 nM
same,EC50,[4],10.7 nM
same,EC50,[5],3.1 nM
same,CC50,[6],91300 nM
COc1ccc(-c2oc(NC(C)(C)c3ccccc3)nc2C)cc1S(=O)(=O)Nc1ccncc1C [Compound S-46],CC50,[1],44500 nM
same,EC50,[2],0.9 nM
same,CC50,[3],52400 nM
same,EC50,[4],2.6 nM
same,EC50,[5],0.4 nM
same,CC50,[6],24500 nM
COc1ccc(-c2sc(NC(C)(C)C3CCOCC3)nc2C)cc1S(=O)(=O)Nc1ncccc1C [Compound S-25],CC50,[1],24000 nM
same,EC50,[2],20.6 nM
same,CC50,[3],24800 nM
same,EC50,[4],93.1 nM
same,EC50,[5],14.1 nM
same,CC50,[6],90700 nM
COc1ccc(-c2sc(NC(C)(C)C3CCOCC3)nc2C)cc1S(=O)(=O)Nc1c(C)ncnc1C [Compound S-17],CC50,[1],100000 nM
same,EC50,[2],10.7 nM
same,CC50,[3],100000 nM
same,EC50,[4],25.5 nM
same,EC50,[5],3.7 nM
same,CC50,[6],99900 nM
COc1ccc(-c2sc(NC(C)(C)c3ccccc3)nc2C)cc1S(=O)(=O)NC1CCN(C=O)CC1 [Compound S-43],CC50,[1],100000 nM
same,EC50,[2],2.1 nM
same,CC50,[3],100000 nM
same,EC50,[4],5.1 nM
same,EC50,[5],0.3 nM
same,CC50,[6],17500 nM
COc1ccc(-c2sc(NC(C)(C)c3ccccc3)nc2C)cc1S(=O)(=O)NC1CCNCC1 [Compound S-41],CC50,[1],2090 nM
same,EC50,[2],9.9 nM
same,CC50,[3],1900 nM
same,EC50,[4],58.5 nM
same,EC50,[5],0.9 nM
same,CC50,[6],776 nM
COc1ccc(-c2sc(NC(C)(C)C3CCOCC3)nc2C)cc1S(=O)(=O)Nc1ccncc1C(F)(F)F [Compound S-26],CC50,[1],39100 nM
same,EC50,[2],18.1 nM
same,CC50,[3],38700 nM
same,EC50,[4],1410 nM
same,EC50,[5],2.3 nM
same,CC50,[6],88700 nM
COc1ccc(-c2sc(NC(C)(C)C3CCOCC3)nc2C)cc1S(=O)(=O)NC1CCC(O)CC1 (stereo not drawn) [Compound S-5],EC50,[2],1.7 nM
same,CC50,[3],57000 nM
same,EC50,[5],0.8 nM
same,CC50,[6],47200 nM
